Measurements: US4444690A, “Technetium chelates” (priority 1982, dated 1984)
“And” between values parts separate entries of the source, which are not always exact repeats. Equal entries are not always repeated. Where two headings read alike, the source gives them in different places.

How the values were obtained:
[1] = cited from earlier work
[2] = Organ biodistribution time course of Tc-CO2-DADS components in mice (Table 1); type: in vivo, Hal Cr female albino mice; conditions: for OIH Urine: mouse, in vivo; for Blood / Intestines / Stomach / Urine / Kidneys / Liver: mean of 6
Procedure: The time course of organ distribution was determined in groups of six Hal Cr female albino mice. They were injected with 0.10 ml (0.5 uCi) of the preparation. For comparison purposes, 0.2 uCi OIH was added to each injection. The mice were placed in metabolic cages for the collection of excreted urine. At indicated intervals after injection, the urethra was ligated and the mice killed with chloroform vapor. The organs were removed and counted in a dual channel counter with correction for I-131 crossover into the Tc-99m channel.

renal tubular transport [3] = test: Tubular transport inhibition study with probenicid (Table 2); conditions: mice; for Blood / Intestines / Kidneys / Liver / Urine (renal excretion): 10 min post injection; for Urine (renal excretion): 10 min
Procedure: (§3) A dose of 50 mg/kg of probenicid was given 10 minutes prior to injection of radiochemicals. OIH was injected simultaneously.
(§4) *Values are mean and S.E.M. percent injected dose at 10 min. post

[4] = Plasma protein binding, ultrafiltration; type: in vitro ADME; conditions: plasma, duplicate determinations, read-out: binding to plasma proteins (converted)
Procedure: (§1) Studies of protein binding were carried out in plasma using an ultrafiltration method described at J.Nucl.Med. 22, 258-263, 1981.

[5] = Blood disappearance rates in rats (FIG. 3); type: in vivo, male Sprague-Dawley rats
Text: These determinations were made in male Sprague-Dawley rats.

plasma proteins [6] = test: Plasma protein binding, ultrafiltration; type: in vitro ADME
Procedure: as §1

[7] = for renal excretion (urine appearance) in words: rabbits, FIG. 4
Procedure: (§2) Organ biodistribution and acute toxicity studies were carried out in mice, blood disappearance and bile appearance rates were determined by sampling of bood or bile in rats, and renal excretion rates of the two Tc-2,3-bis(mercaptoacetamido)propanoic acid components, Tc-DTPA, and OIH were determined in rabbits because of greater ease of urine sampling. The HPLC-purified Tc-2,3-bis(mercaptoacetamido)propanoate components were used directly except for dilution as necessary. In general HPLC collected volumes were 1 to 1.5 ml and were not diluted for rabbit studies, were diluted 2- to 10-fold for rat studies and were diluted about 20-fold for mouse studies. In most cases determinations were made with simultaneous administration of OIH.
The rate of renal excretion was measured in New Zealand albino male rabbits. They were anesthetized with ketamine and xylazine and placed on a gamma camera provided with digital storage. After injection of 0.5 to 1 mCi of the Tc-99m complex containing 0.5μCi of OIH, images were collected on tape for 45 minutes. At 35 minutes after injection, urine was expelled from the bladder and the percentage of injected dose contained in the expelled urine was determined. Accumulation of bladder radioactivity was monitored by placing a region of interest over the bladder. The drop in the radioactivity in the bladder after expelling the urine sample (50-80% of the bladder radioactivity) allowed calibration of the bladder time-activity curve in terms of percent injected dose.

[8] = rats, 90 minutes; for biliary excretion of radioactivity in the absence of renal function: renal pedicles ligated
Procedure: as §2
These determinations were made in male Sprague-Dawley rats. For blood studies the animals were anesthetized with sodium pentobarbital, a line was placed in a femoral vein for tracer injections and hydration, and another was placed in a carotid artery for blood sampling. About 20μCi (0.25 ml) each of OIH and Tc-99m complex under study were injected and 0.1 to 0.2 ml samples of blood were taken at 1, 2, 3, 4, 5, 6, 9, 12, 15, 20, 25, 30, 45, 60, 75, and 90 minutes after injection. Biliary excretion in the absence of renal function was determined by cannulating the common bile duct, ligating the renal pedicles, and collecting bile in 4-minute fractions for 90 minutes.

renal tubular transport [9] = conditions: mouse, in vivo; for Blood / Intestines / Kidneys / Liver: 10 min
Procedure: as §3, §4

[10] = rat, in vivo; cited from earlier work
[11] = human, in vivo; cited from earlier work
[12] = mouse, in vivo, 5 min; cited from earlier work
[13] = rat, in vivo, iv, 1.5 h; cited from earlier work
plasma proteins [14] = conditions: cited from earlier work
[15] = probenicid treated (50 mg/kg, 10 min prior)
[16] = mice, 5 min post injection, listed as Tc--CO2 --DADS--A
[17] = mice, 5 min post injection, listed as component A
[18] = mice, 10 min post injection, listed as Tc--CO2 --DADS--A
[19] = mice, 30 min post injection, listed as Tc--CO2 --DADS--A
[20] = mice, 120 min post injection, listed as Tc--CO2 --DADS--A
[21] = animals with normal renal function

In the case of `O=C(O)CNC(=O)c1ccccc1[131I]` [OIH, I-131 o-iodohippurate], the extraction efficiency ([1]; renal) is listed as “about 67%”, the “OIH Urine” value ([2]; 5 min) is listed as 42.02 percent injected dose and the “OIH Urine” value ([2]; 10 min) is listed as 64.94 percent injected dose. For the same compound, the “OIH Urine” value ([2]; 0.25 h) was 78.24 percent injected dose, the “OIH Urine” value ([2]; 2 h) was 82.43 percent injected dose and the Blood (renal tubular transport [3]; control) was 4.58 percent injected dose. The Intestines (renal tubular transport [3]; control) was 1.12 percent injected dose, the Kidneys (renal tubular transport [3]; control) was 2.83 percent injected dose and the Liver (renal tubular transport [3]; control) was 1.31 percent injected dose. For the same compound, the “Urine (renal excretion)” value (renal tubular transport [3]; control) was 64.94 percent injected dose and 65 percent injected dose, the “decrease of renal excretion by probenicid treatment” value (renal tubular transport [3]; 10 minutes) was 20% and the Blood (renal tubular transport [3]; [15]) was 7.49 percent injected dose. It also gave an Intestines (renal tubular transport [3]; [15]) of 2.18 percent injected dose, a Kidneys (renal tubular transport [3]; [15]) of 3.79 percent injected dose and a Liver (renal tubular transport [3]; [15]) of 2.68 percent injected dose. The “Urine (renal excretion)” value (renal tubular transport [3]; [15]) was 52.62 percent injected dose and 52 percent injected dose, the fraction unbound at 10 min ([4]; 10 minutes) was 0.36 and the fraction unbound at 0.5 h ([4]; 30 minutes) was 0.44. The “blood disappearance in words” value ([5]; rat, in vivo) was “most rapid disappearance through 75 minutes”.
In the case of “Tc-99m diethylenetriaminepentaacetic acid [Tc-99m DTPA]”, the extraction efficiency ([1]; in vivo) is listed as ≤ 20%.
In the case of `O=C(O)C1C[N]2C(=O)C[S][99Tc-]23(=[O])[S]CC(=O)[N]13` (single isomer, unassigned) [Tc-2,3-bis(mercaptoacetamido)propanoate-A] [Tc-99m-2,3-bis(mercaptoacetamido)propanoate], the Blood ([2]; mice, 5 min post injection) is reported as 8.19 percent injected dose, the Intestines ([2]; mice, 5 min post injection) is reported as 1.61 percent injected dose and the Stomach ([2]; mice, 5 min post injection) is reported as 0.24 percent injected dose. The Urine ([2]; mice, 5 min post injection, listed as Tc-2,3-bis(mercaptoacetmido)propanoate-A, 5 min) was 45 percent injected dose, the Kidneys [2, 16] was 5.61 percent injected dose and the Liver [2, 16] was 7.81 percent injected dose. For the same compound, the Urine ([2]; mice, 5 min post injection, listed as Tc--CO2 --DADS--A, 5 min) was 45.52 percent injected dose, the Kidneys [2, 17] was 5.6 percent injected dose and the Liver [2, 17] was “about 8 percent injected dose”. For the same compound, the Blood [2, 18] was 3.10 percent injected dose, the Intestines [2, 18] was 0.82 percent injected dose and the Kidneys [2, 18] was 2.23 percent injected dose. The Liver [2, 18] was 4.26 percent injected dose, the Stomach [2, 18] was 0.11 percent injected dose and the Urine ([2]; mice, 10 min post injection, listed as Tc--CO2 --DADS--A, 10 min) was 67.97 percent injected dose. For the same compound, the Blood ([2]; mice, 15 min post injection) was 1.95 percent injected dose, the Intestines ([2]; mice, 15 min post injection) was 0.86 percent injected dose and the Kidneys ([2]; mice, 15 min post injection) was 1.30 percent injected dose. It also gave a Liver ([2]; mice, 15 min post injection) of 3.79 percent injected dose, a Stomach ([2]; mice, 15 min post injection) of 0.09 percent injected dose and a Urine ([2]; mice, 15 min post injection) of 75.08 percent injected dose. The Intestines ([2]; mice, 30 min post injection) was 1.05 percent injected dose, the Liver ([2]; mice, 30 min post injection) was 1.34 percent injected dose and the Stomach ([2]; mice, 30 min post injection) was 0.07 percent injected dose. For the same compound, the Urine ([2]; mice, 30 min post injection) was 80.82 percent injected dose, the Kidneys ([2]; mice, 30 min post injection, listed as Tc-2,3-bis(mercaptoacetmido)propanoate-A) was “less than 1 percent injected dose” and the Blood [2, 19] was 0.59 percent injected dose. The Kidneys [2, 19] was 0.51 percent injected dose, the Blood ([2]; mice, 30 min post injection, listed as component A) was 0.6 percent injected dose and the Blood [2, 20] was 0.21 percent injected dose. For the same compound, the Intestines [2, 20] was 1.46 percent injected dose, the Kidneys [2, 20] was 0.25 percent injected dose and the Liver [2, 20] was 0.78 percent injected dose. The Stomach [2, 20] was 0.04 percent injected dose, the Urine ([2]; mice, 120 min post injection, listed as Tc--CO2 --DADS--A, 120 min) was 86.57 percent injected dose and the Liver ([2]; mice, 120 min post injection, listed as component A) was “less than 1 percent injected dose”. The “radioactivity seen in the intestine” value ([2]; mice, at any time interval) was ≤ 1.6%, the “renal excretion / clearance in words” value ([2]; mice, comparison with OIH or component A) was “slightly higher than or comparable to OIH in renal excretion” and the “protein binding in words” value (plasma proteins [6]) was “high degree of protein binding”. For the same compound, the “binding to plasma proteins” value (plasma proteins [6]; 10 min) was 93%, the “binding to plasma proteins” value (plasma proteins [6]; 0.5 h) was 94% and the “rate of renal excretion in words” value [7, 21] was “equivalent to OIH”. The “specificity for renal excretion” value [7, 21] was “nearly complete”, the “renal excretion (urine appearance) in words” value [7] was “slightly greater extent than OIH although differences were only significant at 35 minutes (p<0.05)” and the “renal excretion (urine appearance) in words” value ([7]; listed as Component A) was “slightly faster than OIH from 10 minutes onward”. For the same compound, the radioactivity in muscle ([8]; absence of renal function) was 22%, the “radioactivity in the blood” value ([8]; absence of renal function) was 21% and the “radioactivity in the kidneys” value ([8]; absence of renal function) was 1%. The “radioactivity in the liver” value ([8]; absence of renal function) was 4%, the “radioactivity in the spleen” value ([8]; absence of renal function) was 0.1% and the “radioactivity in the stomach” value ([8]; absence of renal function) was 0.3%. The “biliary excretion of radioactivity in the absence of renal function” value (shortened to “biliary excretion of radioactivity”) [8] was “less than 3%”, the “biliary excretion of radioactivity” value ([8]; listed as Tc-99m-2,3-bis(mercaptoacetamido)propanoate-A) was 3.1% and the “biliary excretion with probenicid, in words” value (renal tubular transport [9]) was “not increased significantly”. The “liver radioactivity with probenicid, in words” value (renal tubular transport [9]) was “Biliary excretion was not increased significantly for component A, but liver radioactivity was”, the Blood (renal tubular transport [9]) was 3.37 percent injected dose and the Intestines (renal tubular transport [9]) was 0.77 percent injected dose. For the same compound, the Kidneys (renal tubular transport [9]) was 2.53 percent injected dose, the Liver (renal tubular transport [9]) was 4.21 percent injected dose and the “time at which radioactivity remaining in the blood was 2%” value ([5]; rats) was 36 min. For the same compound, the “time at which radioactivity remaining in the blood was 5%” value ([5]; rats) was 16.5 min, the “blood disappearance in words” value ([5]; rats, FIG. 3) was “higher initial value resulted in comparable curve slopes” and the “blood disappearance in words” value ([5]; rats, FIG. 3, listed as component A) was “comparable to or slightly greater than that of OIH”.
In the case of “1,2-Bis(mercaptoacetamido)ethane [Tc-DADS]”, the “time at which radioactivity remaining in the blood was 2%” value [10] is listed as 68 min, the “time at which radioactivity remaining in the blood was 5%” value [10] is listed as 19 min and the renal retention ([1]; in vivo) is listed as “no evidence of significant renal retention”. The distribution of radioactivity [11] was “confined radioactivity to the vascular system rather than the extracellular space as with Tc-DTPA”, the “effect of decreased renal function on renal excretion” value [11] was “decreased renal function reduced renal excretion of Tc-DADS to a greater extent than OIH” and the hepatobiliary excretion [11] was “hepatobiliary excretion became significant”. For the same compound, the Kidneys [12] was 12.6 % of the dose, the in the urine [12] was 28% and the “biliary excretion of radioactivity” value [13] was 19%. For the same compound, the “decrease in renal excretion with probenicid, in words” value (renal tubular transport [9]) was “decrease in renal excretion of Tc-DADS to a much greater extent than OIH”, the Blood (renal tubular transport [9]) was 1.85 percent injected dose and the Intestines (renal tubular transport [9]) was 4.69 percent injected dose. For the same compound, the Kidneys (renal tubular transport [9]) was 4.25 percent injected dose, the Liver (renal tubular transport [9]) was 2.24 percent injected dose and the protein binding value (plasma proteins [14]) was 95%.
